Test results from patent US20040147720A1, “Novel guasonine triphosphate-binding protein -coupled receptor place 6002312, its gene and production and use of the same” (priority 2001, published 2004).

Experiments:
HEK293 cells (Mock) = HEK293 cells (Mock) with pcDNA3.1(−), not expressing PLACE6002312; [^3H]-histamine 0, 40, 80, 160 nM; room temperature 1 hr; FIG. 7
Protocol: (§1) The ligand-binding assay can serve as a direct method of receptor pharmacology, and is applicable to high-throughput systems. […] First, human embryonic kidney 293 (HEK293) cells were plated on a 10-cm cell culture dish at the cell density of 1×10^6 cells/dish, and incubated in a humidified incubator under 5% CO2 at 37° C. for 24 hr. Then, 10 μg/dish of pcDNA3.1(−)-PLACE6002312 plasmid was transfected by the calcium phosphate method (Mol. Pharm. (1997)-51: 171). After the culturing was continued for 14 hr, the medium was changed with fresh D-MEM containing 10% FBS, and the cells were incubated for another 2 days. After the culturing had completed, the cells were washed with PBS(−), and then suspended in FBS-free D-MEM at the cell density of 1×10^6 cells/ml. The cell suspension were aliquoted (50 μl/well) into flat-bottomed 96-well plate (Sumitomo Bakelite Co.) pre-siliconized with Siliconize L-25 (Fuji Systems). 50-μl aliquots of D-MEM were added to each well, and then radio-labeled [^3H]-histamine was added thereto at the final concentrations of 0, 40, 80, and 160 nM. The plate was incubated at room temperature for 1 hr. Assays for the non-specific binding of [^3H]-histamine were carried out using D-MEM to which unlabeled histamine had been added previously at the final concentration of 1×10^−5 M. […]

PLACE6002312 polypeptide = PLACE6002312 polypeptide (Homo sapiens, UniProt Q8TDU6); settings: HEK293 cells with pcDNA3.1(−)-PLACE6002312; [^3H]-histamine 0, 40, 80, 160 nM; room temperature 1 hr; non-specific binding with 1×10^−5 M unlabeled histamine; FIG. 7
Sequence of PLACE6002312 polypeptide (Q8TDU6 whole entry): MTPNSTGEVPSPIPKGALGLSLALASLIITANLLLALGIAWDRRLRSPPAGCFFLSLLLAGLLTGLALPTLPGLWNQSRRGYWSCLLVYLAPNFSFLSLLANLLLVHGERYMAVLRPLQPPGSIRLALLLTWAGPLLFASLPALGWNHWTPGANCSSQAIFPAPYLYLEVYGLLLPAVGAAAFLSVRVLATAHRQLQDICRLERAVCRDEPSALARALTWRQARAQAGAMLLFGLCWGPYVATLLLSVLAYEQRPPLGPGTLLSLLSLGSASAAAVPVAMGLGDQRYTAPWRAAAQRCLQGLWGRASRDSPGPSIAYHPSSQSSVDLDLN
Protocol: as §1

`NCCc1c[nH]cn1` [histamine] was tested, and the “specific binding to [^3H]-histamine (total binding minus non-specific binding)” value (HEK293 cells (Mock)) was “undetectable” and the “specific binding to [^3H]-histamine (total binding minus non-specific binding)” value (PLACE6002312 polypeptide) was “detected”.
